Test results as given in patent US7470668B2, “Method of use of specific natriuretic peptide receptor c ligands, transgenic non-human mammals expressing specific natriuretic peptide receptor c antagonists and cells thereof” (Enobia Pharma Inc., priority 2005, dated 2008).
Positions of bridges follow the written chain, without caps; N, C: chain ends. Residues, ends and D or L forms follow the SMILES beside them. No end group written: not given here.

How the values were obtained:
NPR-C [1] = target: T1, NPR-C (Homo sapiens, UniProt P17342); experiment: ANP-stimulated cGMP in NPR-C overexpressing HEK293 cells; format: cell-based; conditions: NPR-C overexpressing cells, 0.1 nM ANP[1-28] alone
T1 construct: expressed in transfected cells; host or cells: HEK293, transient, pCDNA1.1 (CMV promoter)
T1 sequence (P17342 27-541): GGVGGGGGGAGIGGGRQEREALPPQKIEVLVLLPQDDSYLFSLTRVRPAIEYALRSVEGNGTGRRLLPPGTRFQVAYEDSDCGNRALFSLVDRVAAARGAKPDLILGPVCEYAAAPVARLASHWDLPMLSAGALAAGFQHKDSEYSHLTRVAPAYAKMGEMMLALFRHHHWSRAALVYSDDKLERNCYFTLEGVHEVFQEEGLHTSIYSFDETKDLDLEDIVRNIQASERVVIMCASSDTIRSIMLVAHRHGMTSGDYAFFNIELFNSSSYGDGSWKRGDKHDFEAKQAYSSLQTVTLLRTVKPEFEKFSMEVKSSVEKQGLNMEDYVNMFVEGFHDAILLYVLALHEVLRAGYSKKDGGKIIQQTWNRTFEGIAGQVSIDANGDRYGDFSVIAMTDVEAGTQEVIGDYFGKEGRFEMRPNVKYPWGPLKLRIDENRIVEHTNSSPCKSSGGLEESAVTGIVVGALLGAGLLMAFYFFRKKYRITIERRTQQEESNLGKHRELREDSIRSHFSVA
Source text: The expression plasmid for rat GC-A containing the entire coding sequence cloned between the NheI-KpnI sites of CMV-driven pBK plasmid (Stratagene, La Jolla, Calif.) was kindly provided by Dr. A. De Léan (Département de Pharmacologie, Université de Montréal). The human NPR-C and GC-B coding sequences were amplified by RT-PCR from human embryonic kidney polyA RNA (Clontech, Palo Alto, Calif.) with the following primer pairs: NPR-C-5′-[…]-3′(forward) (SEQ ID NO: 74) and 5′-[…]-3′ (SEQ ID NO: 75) (reverse); GC-B-5′-[…]-3′ (SEQ ID NO: 76) (forward) and 5′-[…]-3′ (SEQ ID NO: 77) (reverse). The resulting PCR products were then cloned downstream of the CMV-promoter into the pCDNA1.1 plasmid (Invitrogen, Burlington, ON, Canada). All constructs were validated by DNA sequencing.

[2] = system: primary rat osteoblastic cultures; conditions: cited from earlier work
NPR-C [3] = target: T2, NPR-C (Mus musculus, UniProt P70180); experiment: Competitive binding of 125I-Ostn[83-133] on ATDC5 cells
T2 construct: NPR-C was also found to be expressed in these cells; endogenous in cells; host or cells: ATDC5 (mouse chondrogenic cell line), intact cells
T2 sequence (P70180 41-536): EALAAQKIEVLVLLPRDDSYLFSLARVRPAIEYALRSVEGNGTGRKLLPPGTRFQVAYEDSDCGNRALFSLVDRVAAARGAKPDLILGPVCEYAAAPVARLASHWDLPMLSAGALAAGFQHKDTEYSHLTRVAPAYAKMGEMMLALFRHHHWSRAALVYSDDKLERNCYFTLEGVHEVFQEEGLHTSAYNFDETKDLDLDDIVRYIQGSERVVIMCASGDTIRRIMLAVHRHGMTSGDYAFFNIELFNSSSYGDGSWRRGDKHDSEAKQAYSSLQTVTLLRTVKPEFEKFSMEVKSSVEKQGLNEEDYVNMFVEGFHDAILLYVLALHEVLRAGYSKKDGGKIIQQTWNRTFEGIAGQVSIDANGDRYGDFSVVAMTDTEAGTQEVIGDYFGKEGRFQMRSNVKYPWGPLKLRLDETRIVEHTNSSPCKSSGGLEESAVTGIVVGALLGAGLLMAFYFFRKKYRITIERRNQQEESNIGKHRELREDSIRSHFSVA
Source text: (§1) To gain further insight into the cellular basis of the interaction between CNP and Ostn in endochondral bone formation, ATDC5 cells were used. These cells are a mouse chondrogenic cell line derived from embryogenic carcinoma cells (Shukunami et al., 1996). […] In another study, NPR-C was also found to be expressed in these cells and the amount of transcripts decreased in association with the chondrogenic differentiation (Fujishige et al., 1999).
(§2) Cold and radio iodinated human Ostn[83-133] (SEQ ID NO: 41) were purchased from Phoenix Pharmaceutical co. (CA, USA). CNP was obtained from Sigma (St. Louis, USA) and rat C-ANF was purchased from Bachem (CA, USA). Cyclic GMP direct Biotrak™ EIA kit was obtained from Amersham Biosciences (Quebec, Canada) and DMEM/F-12 and PBS were obtained from Wisent (Quebec, Canada). Protease inhibitors were purchased from Roche (Quebec, Canada)
ATDC5 cells, grown in 24-well plates to 90% confluence, were washed twice with cold PBS and incubated with 500 μl of DMEM/F-F12 containing 0.1% BSA (wt/vol), protease inhibitor (40 μl/ml of medium), ^1251-Ostn[83-133] (0.05 μCi/well) and varying concentration of cold Ostn[83-133] (SEQ ID NO: 41) for 90 min at 4° C. After incubation, cells were washed twice with ice-cold PBS and solubilized with 0.5-ml of 0.5 M NaOH.
The radioactivity was measured with gamma-counter (Wallac).

ATDC5 cells = experiment: cGMP production in ATDC5 cells; format: cell-based, mouse; conditions: for cGMP production by peptide alone: 0.1 μM
Source text: as §1, with “1999). Therefore, ATDC5 cells are considered to be a good model to study the interaction between CNP and Ostn in vitro.” for “1999).”
as §2
Cells, grown in 24-well plates to 90% confluence, were washed twice with PBS and incubated in DMEM/F12 containing 1 mM IBMX, a protease inhibitor cocktail (40 ul/ml of medium), 0.1% BSA with or without C-ANF (0.1 μM) or Ostn[83-133] (0.1 μM) for 10 min at 37° C. prior to the addition of varying concentrations of CNP. They were then incubated for 15 min. After incubation, cells were washed twice with PBS and scraped in ice-cold ethanol (65%). The supernatant, obtained by centrifuging at 2000×g for 15 min at 4° C., was evaporated to dryness via speed vac. The amount of cGMP was measured with cGMP direct Biotrak™ EIA kit.

[4] = system: foetal mouse tibial organ culture; conditions: ex vivo foetal mouse tibia; cited from earlier work
human GC-B = target: T3, human GC-B (Homo sapiens, UniProt P20594); experiment: Intracellular cGMP in GC-B transfected HEK293 cells; format: cell-based; conditions: 10 nM peptide, 15 min
T3 construct: expressed in transfected cells; host or cells: HEK293, transient, pCDNA1.1 (CMV promoter)
T3 sequence (P20594 23-1047): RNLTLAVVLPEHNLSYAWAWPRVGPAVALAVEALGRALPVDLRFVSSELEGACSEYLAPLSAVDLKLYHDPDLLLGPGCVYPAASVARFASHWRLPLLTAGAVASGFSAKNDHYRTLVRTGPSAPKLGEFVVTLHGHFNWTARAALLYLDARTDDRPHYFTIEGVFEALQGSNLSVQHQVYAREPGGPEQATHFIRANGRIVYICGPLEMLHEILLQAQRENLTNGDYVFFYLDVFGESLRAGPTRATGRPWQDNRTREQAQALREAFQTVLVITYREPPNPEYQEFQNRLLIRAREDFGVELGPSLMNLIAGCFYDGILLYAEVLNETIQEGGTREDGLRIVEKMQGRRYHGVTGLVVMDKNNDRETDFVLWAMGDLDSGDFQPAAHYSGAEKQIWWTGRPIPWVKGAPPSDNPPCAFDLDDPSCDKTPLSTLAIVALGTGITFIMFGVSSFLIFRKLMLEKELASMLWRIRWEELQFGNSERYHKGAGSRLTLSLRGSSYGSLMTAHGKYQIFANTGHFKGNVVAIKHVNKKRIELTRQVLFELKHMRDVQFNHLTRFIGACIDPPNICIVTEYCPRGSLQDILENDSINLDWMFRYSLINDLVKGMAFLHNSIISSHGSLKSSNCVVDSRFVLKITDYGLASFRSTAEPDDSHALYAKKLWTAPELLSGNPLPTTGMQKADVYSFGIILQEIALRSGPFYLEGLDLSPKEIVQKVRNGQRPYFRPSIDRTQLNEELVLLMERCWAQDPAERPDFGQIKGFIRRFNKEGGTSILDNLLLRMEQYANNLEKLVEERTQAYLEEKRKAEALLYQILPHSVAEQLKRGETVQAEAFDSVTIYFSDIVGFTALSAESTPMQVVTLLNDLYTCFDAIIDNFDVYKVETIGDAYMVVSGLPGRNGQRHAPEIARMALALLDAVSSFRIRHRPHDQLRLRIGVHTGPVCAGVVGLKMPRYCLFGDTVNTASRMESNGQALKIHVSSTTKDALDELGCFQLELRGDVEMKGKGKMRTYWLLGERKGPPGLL

| increase in cGMP levels upon ANP stimulation (NPR-C [1]) | inhibition of bound 125I-Ostn[83-133] (NPR-C [3]; 1 μM cold peptide) | total binding (NPR-C [3]; ATDC5 cells, 24-well plates) | intracellular cGMP response via GC-B (human GC-B) | Compound | effect on osteoblast differentiation [2] | effect on proliferation [2] | cGMP production by peptide alone (ATDC5 cells) | cGMP production (ATDC5 cells; varying concentrations of CNP, 15 min) | effect on bone length [4] | IC50 (NPR-C [3]) | maximal inhibition, less than that of cold Ostn[83-133] (NPR-C [3]; 1 μM) |
| --- | --- | --- | --- | --- | --- | --- | --- | --- | --- | --- | --- |
| 1.5 fold | – | – | – | CC[C@H](C)[C@@H]1NC(=O)[C@H](CCCNC(=N)N)NC(=O)[C@H](CC(=O)O)NC(=O)[C@H](CCSC)NC(=O)[C@H](CCCNC(=N)N)NC(=O)CNC(=O)CNC(=O)[C@H](Cc2ccccc2)NC(=O)[C@@H](NC(=O)[C@H](CO)NC(=O)[C@H](CO)NC(=O)[C@H](CCCNC(=N)N)NC(=O)[C@H](CCCNC(=N)N)NC(=O)[C@H](CC(C)C)NC(=O)[C@@H](N)CO)CSSC[C@@H](C(=O)N[C@@H](CC(N)=O)C(=O)N[C@@H](CO)C(=O)N[C@@H](Cc2ccccc2)C(=O)N[C@@H](CCCNC(=N)N)C(=O)N[C@@H](Cc2ccc(O)cc2)C(=O)O)NC(=O)CNC(=O)[C@H](CC(C)C)NC(=O)CNC(=O)[C@H](CO)NC(=O)[C@H](CCC(N)=O)NC(=O)[C@H](C)NC(=O)CNC1=O [ANP] | stimulated osteoblast differentiation | inhibited proliferation | – | – | – | – | – |
| – | More than 90% | 76.5 pmol/well | – | SFSGFGSPLDRLSAGSVDHKGKQRKVVDHPKRRFGIPMDRIGRNRLSNSRG [Ostn[83-133]] | – | – | only trace of cGMP production | – | – | – | – |
| – | – | – | greatest responses | CNP: natriuretic peptide CNP (1-22) from Sigma; GC-B selective agonist | stimulated osteoblast differentiation | inhibited proliferation | – | concentration-dependent cGMP production | significant increases in bone length | – | – |
| – | – | – | – | CC[C@H](C)[C@@H]1NC(=O)[C@H](CCCNC(=N)N)NC(=O)[C@H](CC(=O)O)NC(=O)[C@H]([C@@H](C)CC)NC(=O)[C@H](CCCNC(=N)N)NC(=O)CNC(=O)CNC(=O)[C@H](Cc2ccccc2)NC(=O)[C@@H](NC(=O)[C@H](CO)NC(=O)[C@H](CO)NC(=O)[C@@H](N)CCCNC(=N)N)CSSC[C@@H](C(N)=O)NC(=O)[C@H](C)NC(=O)CNC1=O [C-ANF] (H-RSSCFGGRIDRIGAC-NH2; disulfide 4-15; N-terminus and C-terminus assumed) | no effect | – | only trace of cGMP production | – | no effect | 6.7 nM | 15% |
